Activity calls are given as the source filed them. The calls are words filed in the database; no cut-off is given here.
Key:
HT-1080 [1] = test: Cytotoxicity against human HT-1080 cells incubated for 48 hrs by CCK-8 assay; assay type: functional, cell-based; conditions: HT-1080, 48 h
[2] = Cytotoxicity against human AAMG 510-resistant MIA PaCa-2 cells at 1 uM incubated for 48 hrs by CCK-8 assay; assay type: functional, AMG 510-resistant MIA PaCa-2
[3] = Cytotoxicity against human HPNE cells; assay type: toxicity, cell-based
HT-1080 [4] = test: Induction of ferroptosis in human HT-1080 cells assessed as accumulation of lipid peroxidation at 10 uM after 6 hrs by BODIPYTM 581/591C11 probe based flow cytometry assay; assay type: functional, cell-based

Compound	IC50 (HT-1080 [1])	also measured
O=C(CCCNC1=C(Cl)C(=O)c2ccccc2C1=O)Nc1ccc(N(C(=O)CCl)C(C(=O)NCCc2ccccc2)c2cccs2)cc1 (stereo not drawn)	1.6 µM	
O=C(Cn1cc(COCc2ccc(N(C(=O)CCl)C(C(=O)NCCc3ccccc3)c3cccs3)cc2Cl)nn1)NCCCNC1=C(Cl)C(=O)c2ccccc2C1=O (stereo not drawn)	2.6 µM	
O=C1C(Cl)=C(N2CCC(C(=O)Nc3ccc(N(C(=O)CCl)C(C(=O)NCCc4ccccc4)c4cccs4)cc3)CC2)C(=O)c2ccccc21 (stereo not drawn)	3.6 µM	
COc1cccc2c1C(=O)C=C(NCCOCCC(=O)Nc1ccc(N(C(=O)CCl)C(C(=O)NCCc3ccccc3)c3cccs3)cc1)C2=O (stereo not drawn)	13.7 µM	
O=C(CCNC1=CC(=O)c2cc3ccccc3cc2C1=O)Nc1ccc(N(C(=O)CCl)C(C(=O)NCCc2ccccc2)c2cccs2)cc1 (stereo not drawn)	10.7 µM	
C=CC(=O)N1CCN(c2nc(=O)n(-c3c(C)ccnc3C(C)C)c3nc(-c4c(O)cccc4F)c(F)cc23)[C@@H](C)C1 [SOTORASIB]		Activity [2]: <50%
CC1=C(NCCCC(=O)Nc2ccc(N(C(=O)CCl)C(C(=O)NCCc3ccccc3)c3cccs3)cc2)C(=O)c2ccccc2C1 (stereo not drawn)	3.4 µM	
CC1=C(NCCC(=O)Nc2ccc(N(C(=O)CCl)C(C(=O)NCCc3ccccc3)c3cccs3)cc2)C(=O)c2ccccc2C1=O (stereo not drawn)	2.2 µM	
O=C(CCCCNC1=CC(=O)c2ccccc2C1=O)Nc1ccc(N(C(=O)CCl)C(C(=O)NCCc2ccccc2)c2cccs2)cc1 (stereo not drawn)	1.9 µM	
O=C(CCOCCNC1=CC(=O)c2ccccc2C1=O)Nc1ccc(N(C(=O)CCl)C(C(=O)NCCc2ccccc2)c2cccs2)cc1 (stereo not drawn)	4.7 µM	
O=C(CCCNC1=CC(=O)c2cc3ccccc3cc2C1=O)Nc1ccc(N(C(=O)CCl)C(C(=O)NCCc2ccccc2)c2cccs2)cc1 (stereo not drawn)	3.7 µM	IC50 [3]: 7.46 µM; Activity (HT-1080 [4]): Active

Source: ChEMBL document CHEMBL5500352, “ML162 derivatives incorporating a naphthoquinone unit as ferroptosis/apoptosis inducers: Design, synthesis, anti-cancer activity, and drug-resistance reversal evaluation” (Eur J Med Chem, 2024)
